Here are results for 8 compounds from patent US20100331305A1, “OXO-HETEROCYCLE FUSED PYRIMIDINE COMPOUNDS, COMPOSITIONS AND METHODS OF USE” (Genentech, Inc., priority 2009, published 2010).

As usually defined, the EC50 is the concentration at which the effect is half-maximal. The term Ki denotes the dissociation constant of the complex between target and ligand, obtained from inhibition or displacement.

In assay [1] the test system is AKT serine-473 phosphorylation in PC-3 cells. The experiment in a line: In vitro phospho-AKT serine 473 cellular assay. The settings on record: Homo sapiens; PC-3 cells stimulated with EGF; first nine specific compounds; read-out: EC50 activity level, inhibition of AKT serine-473 phosphorylation. Format: cell-based. Here is the method: b. In Vitro Phospho-AKT Serine 473 Cellular Assay
The assay measures a test compound's inhibition of AKT serine-473 phosphorylation in human prostate adenocarcinoma derived PC-3 (ATCC CRL-1435) cells that have been stimulated with epidermal growth factor (EGF).
The PC-3 cell line is maintained in RPMI1640 media supplemented with 10% FBS, 2 mM Glutamine, and 10 mM HEPES pH 7.4 at 37° C. in a 5% CO2 humidified incubator.
Cells are seeded in 384-well plates at 7,000 cells/well in 50 μl growth media. After 24 hours, growth media is removed and replaced with RPMI1640 containing no FBS. Cells are treated with 10 concentrations of test compounds or DMSO alone for controls (final DMSO concentration 0.5%) and incubated at 37° C. for 30 minutes. Cells are then stimulated for 10 minutes with 100 ng/ml EGF (final concentration). One column of controls is not stimulated with EGF to observe the signal ratio between stimulated and non-stimulated cells. After 10 minutes, compounds and stimulation media are removed and replaced with 25 μl lysis buffer containing protease inhibitors and phosphatase inhibitors. This buffer contains detergent to bring about cellular disruption. […] Following the transfer of lysate to the MSD plate, AKT in the lysate is captured on the coated antibody by incubation on a shaker at 4° C. for 16 hours. Following the capture step the plate is washed and then incubated for two hours with an antibody to S473 phosphorylated AKT which is conjugated with a Sulfo-Tag. This tag gives a signal when in proximity to the electrode on the base of the MSD plate. Binding the tagged antibody to the captured protein allow detection on a MSD reader.
EC50 values are calculated using MDL Assay Explorer 3.0.1.8 fitting a sigmoidal curve with a variable slope.

The subject of another assay is PC3 cells. Briefly: In vitro cell proliferation assay. Format: cell-based, human. The settings on record: Homo sapiens, PC-3, with PC3 cells; values tied to compounds by order of Table 1. In outline: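 PC3 (or MDAMB361.1) cells, ~10^3/well, settled overnight, then exposed to compound for 3 days; viability read by CellTiter-Glo luminescence (RLU). Alternatively, 4-day compound exposure followed by Alamar Blue for 6 h, fluorescence 544/590 nm; EC50 from sigmoidal dose-response fit.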

Assay [2] concerns the target mTOR enzyme (mTOR(1360-2549)+GBL) (Homo sapiens, UniProt P42345). Briefly: In vitro mTOR kinase assay (TR-FRET). Format: biochemical. The settings on record: 0.25 nM mTOR+GBL, 8 uM ATP; values tied to compounds by order of Table 1; 'x or y' = two alternative values for separated diastereomers of unassigned stereochemistry; read-out: activity level (Ki) in the mTOR kinase assay. In outline: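 Compounds were tested in 10-point dose curves from 10 uM top final concentration. The reaction was stopped with 2 nM Tb-anti-p4E-BP1 (T37/T46) antibody plus 10 mM EDTA for 30 minutes, and phospho-4E-BP1 was detected by TR-FRET. Ki apparent was fitted with the Morrison ATP-competitive tight-binding equation.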

mTOR enzyme (mTOR(1360-2549)+GBL), sequence (P42345 1360-2549, species assumed): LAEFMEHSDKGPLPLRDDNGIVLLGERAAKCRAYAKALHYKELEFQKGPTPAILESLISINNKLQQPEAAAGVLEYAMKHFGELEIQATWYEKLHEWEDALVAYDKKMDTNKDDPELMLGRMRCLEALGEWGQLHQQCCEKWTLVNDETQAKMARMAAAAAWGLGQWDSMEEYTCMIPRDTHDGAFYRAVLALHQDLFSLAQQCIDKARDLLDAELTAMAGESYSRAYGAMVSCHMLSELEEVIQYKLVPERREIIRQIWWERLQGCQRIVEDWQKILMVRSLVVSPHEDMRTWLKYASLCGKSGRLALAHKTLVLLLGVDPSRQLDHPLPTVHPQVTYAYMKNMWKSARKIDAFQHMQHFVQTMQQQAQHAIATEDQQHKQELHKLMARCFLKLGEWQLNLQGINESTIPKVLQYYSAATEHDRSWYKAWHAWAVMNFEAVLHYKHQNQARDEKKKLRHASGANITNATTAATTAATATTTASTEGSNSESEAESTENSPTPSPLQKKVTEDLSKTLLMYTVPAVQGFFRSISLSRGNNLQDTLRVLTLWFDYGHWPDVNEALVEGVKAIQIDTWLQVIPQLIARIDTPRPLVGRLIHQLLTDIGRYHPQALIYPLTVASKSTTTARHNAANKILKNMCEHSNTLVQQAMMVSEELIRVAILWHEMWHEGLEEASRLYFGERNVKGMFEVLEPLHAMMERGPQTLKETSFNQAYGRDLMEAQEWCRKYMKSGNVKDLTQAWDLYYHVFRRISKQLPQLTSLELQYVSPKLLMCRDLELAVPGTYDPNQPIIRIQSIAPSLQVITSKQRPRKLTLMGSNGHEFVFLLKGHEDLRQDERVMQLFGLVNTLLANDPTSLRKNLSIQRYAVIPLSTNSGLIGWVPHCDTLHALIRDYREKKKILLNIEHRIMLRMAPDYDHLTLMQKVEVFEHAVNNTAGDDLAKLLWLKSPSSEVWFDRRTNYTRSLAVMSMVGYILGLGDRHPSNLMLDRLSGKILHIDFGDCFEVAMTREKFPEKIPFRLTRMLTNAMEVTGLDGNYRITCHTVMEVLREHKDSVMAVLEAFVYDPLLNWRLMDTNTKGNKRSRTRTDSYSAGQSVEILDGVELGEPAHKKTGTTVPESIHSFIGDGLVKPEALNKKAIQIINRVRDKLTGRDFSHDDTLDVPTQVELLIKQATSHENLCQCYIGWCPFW
mTOR enzyme (mTOR(1360-2549)+GBL), sequence (Q9BVC4 whole entry partner, species assumed): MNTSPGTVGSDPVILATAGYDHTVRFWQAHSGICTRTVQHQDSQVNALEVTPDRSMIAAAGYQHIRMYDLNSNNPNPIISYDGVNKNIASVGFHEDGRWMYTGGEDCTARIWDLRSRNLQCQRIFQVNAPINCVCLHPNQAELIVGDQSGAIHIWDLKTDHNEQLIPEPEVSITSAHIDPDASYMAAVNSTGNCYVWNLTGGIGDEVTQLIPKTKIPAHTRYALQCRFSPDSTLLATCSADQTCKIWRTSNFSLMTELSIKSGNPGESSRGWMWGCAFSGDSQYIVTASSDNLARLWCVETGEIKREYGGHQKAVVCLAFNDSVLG

For the compound `CCNC(=O)Nc1ccc(-c2nc3c(c(N4CCOCC4)n2)CCCO3)cc1` [Example 15, 1-ethyl-3-(4-(4-morpholino-6,7-dihydro-5H-pyrano[2,3-d]pyrimidin-2-yl)phenyl)urea], the EC50 in assay [1] stood at 0.085 µM; with PC3 cells, 0.194 µM.

As for `CCNC(=O)Nc1ccc(-c2nc3c(c(N4CCOC[C@@H]4C)n2)CCCO3)cc1` [Example 16, (S)-1-ethyl-3-(4-(4-(3-methylmorpholino)-6,7-dihydro-5H-pyrano[2,3-d]pyrimidin-2-yl)phenyl)urea], the Ki in assay [2] was determined as 0.002 µM. The EC50 in assay [1] was found to be 0.01 µM; in the assay on PC3 cells it was 0.231 µM.

`CCNC(=O)Nc1ccc(-c2nc3c(c(N4CCOC[C@@H]4C)n2)COCC3)cc1` [Example 17, (S)-1-ethyl-3-(4-(4-(3-methylmorpholino)-7,8-dihydro-5H-pyrano[4,3-d]pyrimidin-2-yl)phenyl)urea]: the Ki in assay [2] was 0.004 µM. Besides, the EC50 in assay [1] was determined as 0.022 µM; in the assay on PC3 cells, 0.175 µM.

For `CCNC(=O)Nc1ccc(-c2nc3c(c(N4CCOC[C@@H]4CC)n2)COCC3)cc1` [Example 19, (S)-1-ethyl-3-(4-(4-(3-ethylmorpholino)-7,8-dihydro-5H-pyrano[4,3-d]pyrimidin-2-yl)phenyl)urea], the Ki in assay [2] is 0.001 µM. The values for the EC50 (in assay [1]; in the assay on PC3 cells) were 0.006 µM and 0.088 µM, respectively.

As to `C[C@H]1COCCN1c1nc(-c2ccc(NC(=O)Nc3ccon3)cc2)nc2c1COCC2` [Example 20, (S)-1-(isoxazol-3-yl)-3-(4-(4-(3-methylmorpholino)-7,8-dihydro-5H-pyrano[4,3-d]pyrimidin-2-yl)phenyl)urea], the Ki in assay [2] stood at 0.002 µM. The EC50 in assay [1] amounted to 0.015 µM; with PC3 cells, 0.094 µM.

Consider `C[C@H]1COCCN1c1nc(-c2ccc(NC(=O)Nc3ccn(C)n3)cc2)nc2c1COCC2` [Example 21, (S)-1-(1-methyl-1H-pyrazol-3-yl)-3-(4-(4-(3-methylmorpholino)-7,8-dihydro-5H-pyrano[4,3-d]pyrimidin-2-yl)phenyl)urea], for which the Ki in assay [2] worked out at 0.003 µM. In addition, the EC50 in assay [1] was found to be 0.108 µM; with PC3 cells it was 0.189 µM.

With `C[C@H]1COCCN1c1nc(-c2ccc(NC(=O)Nc3cnn(C)c3)cc2)nc2c1COCC2` [Example 22, (S)-1-(1-methyl-1H-pyrazol-4-yl)-3-(4-(4-(3-methylmorpholino)-7,8-dihydro-5H-pyrano[4,3-d]pyrimidin-2-yl)phenyl)urea], the Ki in assay [2] was 0.004 µM. The EC50 in assay [1] was determined as 0.042 µM; in the assay with PC3 cells it was 0.059 µM.

Turning to `C[C@H]1COCCN1c1nc(-c2ccc(NC(=O)NCC(F)(F)F)cc2)nc2c1COCC2` [Example 23, (S)-1-(4-(4-(3-methylmorpholino)-7,8-dihydro-5H-pyrano[4,3-d]pyrimidin-2-yl)phenyl)-3-(2,2,2-trifluoroethyl)urea], in assay [2], the inhibition constant (Ki) was 0.016 µM. Further, the EC50 in assay [1] was 0.049 µM; in the assay on PC3 cells it was 0.993 µM.
